Data set [1] is described as follows: in vivo. The conditions noted are these: mouse, po, 5 mg/kg.
Data set [2] can be described thus: in vivo. The conditions noted are these: Sprague-Dawley, rat, po, 5 mg/kg.
Data set [3] can be described thus: in vitro. The conditions noted are these: human, plasma.
The nature of data set [4]: in vivo. The conditions noted are these: Sprague-Dawley, rat, po, 5 mg/kg. This is another data set of the same source.
The nature of data set [5]: in vitro. The conditions noted are these: rat, plasma.
Data set [6] in a line: in vitro. The conditions noted are these: mouse, plasma.
Data set [7] in a line: physchem. The conditions noted are these: aqueous, pH 7.4.
Data set [8] is described as follows: in vitro. The conditions noted are these: plasma.
Data set [9] is described as follows: physchem. The conditions noted are these: octanol/aqueous phosphate buffered saline, pH 7.4.

Converted amounts (≈) assume the structure as drawn.

A word on the Cmax: it is the peak of the concentration-time curve. The term fraction unbound denotes the share of the substance not bound to proteins or other matrix. A lower fraction unbound goes with little free substance. For orientation: solubility means the concentration that dissolves in the medium under given conditions. One may read the logD as lipophilicity at a set pH, counting ionised and neutral species. Lower therefore signals a more hydrophilic compound.

Consider `O=C(Nc1ccnc(NC(=O)C2CC2)c1)c1c(Cl)cccc1Cl`, for which the figures for the maximum concentration (Cmax) in “in vivo [1]” and in the data set “in vivo [4]” were 1600 nM and 2500 nM, respectively. Further, in the data set “in vivo [2]”, the bioavailability is 105%. In addition, the fraction unbound in the data set “in vitro [3]” was 0.05; in “in vitro [5]”, 0.04; in “in vitro [6]”, 0.04.

Regarding `O=C(Nc1ccncc1)c1c(Cl)cccc1Cl`, the concentration in solution in the data set “physchem [7]” (solubility) came to 630 µg/mL (≈ 2360 µM). Besides, in “in vitro [8]”, the free fraction (fraction unbound) is 0.3. The compound also registered a log distribution coefficient (logD) at 1 h in “physchem [9]” of 2.2.

Values taken from ChEMBL document CHEMBL2417497, “Lead identification of novel and selective TYK2 inhibitors” (Eur J Med Chem, 2013).
